Assay results reported in US12534469B2 (CHILDREN'S HOSPITAL MEDICAL CENTER, priority 2020, dated 2026).

Each compound was assayed against T1, FLT3 (Homo sapiens, UniProt P36888) (assay: RBC HotSpot Kinase Assay, FLT3).
T1 construct: purchased Reaction Biology (RBC HotSpot Kinase Assay)
T1 sequence (P36888 564-958 limits assumed): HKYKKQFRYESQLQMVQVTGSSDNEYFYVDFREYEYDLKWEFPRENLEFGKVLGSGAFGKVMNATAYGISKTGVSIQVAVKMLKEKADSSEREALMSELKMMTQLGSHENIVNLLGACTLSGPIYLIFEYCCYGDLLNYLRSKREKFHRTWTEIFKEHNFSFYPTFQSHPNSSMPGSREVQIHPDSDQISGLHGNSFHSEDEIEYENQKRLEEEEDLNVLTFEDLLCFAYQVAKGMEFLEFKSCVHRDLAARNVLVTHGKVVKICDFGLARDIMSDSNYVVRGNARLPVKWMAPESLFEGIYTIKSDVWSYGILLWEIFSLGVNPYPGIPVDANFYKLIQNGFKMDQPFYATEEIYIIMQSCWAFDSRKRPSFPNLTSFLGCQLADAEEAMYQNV
Format: biochemical
How it was run: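 Radiometric filter-binding (HotSpot) activity assay on isolated recombinant kinase, possibly truncated or catalytic domain only, in 20 mM Hepes pH 7.5, 10 mM MgCl2, 1 mM EGTA, 2 mM DTT, 1% DMSO. Compound preincubated 20 min with kinase and substrate, then ^33P-ATP added. Reaction 2 h at room temperature, read by P81 filter binding.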

Point of comparison: `COc1cc2ncc(-c3cccc(N[C@@H]4CCNC4)n3)n2nc1C1CC1` [Compound 97, (R)-6-(6-cyclopropyl-7-methoxyimidazo[1,2-b]pyridazin-3-yl)-N-(pyrrolidin-3-yl)pyridin-2-amine], IC50 0.6 nM. Against it:
- COc1cc2ncc(-c3nc(N[C@H]4CNCC[C@@H]4F)c(F)cc3F)n2nc1C(C)(C)O [Compound 128, 2-(3-(3,5-difluoro-6-(((3S,4S)-4-fluoropiperidin-3-yl)amino)pyridin-2-yl)-7-methoxyimidazo[1,2-b]pyridazin-6-yl)propan-2-ol] — lower, < 0.5 nM
- COc1cc2ncc(-c3nc(N[C@H]4CNCC[C@@H]4F)c(F)cc3F)n2nc1C1CC1 [Compound 108, 6-(6-cyclopropyl-7-methoxyimidazo[1,2-b]pyridazin-3-yl)-3,5-difluoro-N-((3S,4S)-4-fluoropiperidin-3-yl)pyridin-2-amine] — lower, < 0.5 nM
- COc1cc2ncc(-c3cccc(N[C@H]4CNC[C@@H]4C(F)(F)F)n3)n2nc1C1CC1 [Compound 99, 6-(6-cyclopropyl-7-methoxyimidazo[1,2-b]pyridazin-3-yl)-N-((3R,4S)-4-(trifluoromethyl)pyrrolidin-3-yl)pyridin-2-amine] — the same, 0.6 nM
- c1cc(N[C@@H]2CCCNC2)nc(-c2cnc3ccc(-c4cnn5ccccc45)nn23)c1 [Compound 19, (R)-N-(piperidin-3-yl)-6-(6-(pyrazolo[1,5-a]pyridin-3-yl)imidazo[1,2-b]pyridazin-3-yl)pyridin-2-amine] — lower, < 0.5 nM
- COc1cc2ncc(-c3nc(N[C@@H]4CCCNC4)c(F)cc3F)n2nc1C(C)(C)O [Compound 127, (R)-2-(3-(3,5-difluoro-6-(piperidin-3-ylamino)pyridin-2-yl)-7-methoxyimidazo[1,2-b]pyridazin-6-yl)propan-2-ol] — lower, < 0.5 nM
- COc1cc2ncc(-c3cccc(N[C@H]4CNC[C@@H]4F)n3)n2nc1C1CC1 [Compound 96, 6-(6-cyclopropyl-7-methoxyimidazo[1,2-b]pyridazin-3-yl)-N-((3S,4S)-4-fluoropyrrolidin-3-yl)pyridin-2-amine] — the same, 0.6 nM
- COc1cc2ncc(-c3nc(N[C@H]4CNC[C@@H]4F)c(F)cc3F)n2nc1C1CC1 [Compound 107, 6-(6-cyclopropyl-7-methoxyimidazo[1,2-b]pyridazin-3-yl)-3,5-difluoro-N-((3S,4S)-4-fluoropyrrolidin-3-yl)pyridin-2-amine] — lower, < 0.5 nM
- COc1cc2ncc(-c3cccc(N[C@H]4CNCC[C@@H]4F)n3)n2nc1C1CC1 [Compound 102, 6-(6-cyclopropyl-7-methoxyimidazo[1,2-b]pyridazin-3-yl)-N-((3S,4S)-4-fluoropiperidin-3-yl)pyridin-2-amine] — lower, < 0.5 nM
- COc1cc2ncc(-c3nc(N[C@H]4CNC[C@@H]4F)c(F)cc3F)n2nc1C(C)(C)O [Compound 126, 2-(3-(3,5-difluoro-6-(((3S,4S)-4-fluoropyrrolidin-3-yl)amino)pyridin-2-yl)-7-methoxyimidazo[1,2-b]pyridazin-6-yl)propan-2-ol] — lower, < 0.5 nM
- COc1cc2ncc(-c3cccc(N[C@H]4CNC[C@@H]4F)n3)n2nc1C(C)(O)C(F)(F)F (single isomer, unassigned; fast-eluting) [Compound 133] — lower, < 0.5 nM
- F[C@H]1CNC[C@@H]1Nc1cccc(-c2cnc3ccc(-c4cnn5ccccc45)nn23)n1 [Compound 9, N-((3S,4S)-4-fluoropyrrolidin-3-yl)-6-(6-(pyrazolo[1,5-a]pyridin-3-yl)imidazo[1,2-b]pyridazin-3-yl)pyridin-2-amine] — lower, < 0.5 nM
- COc1cc2ncc(-c3nc(N[C@@H]4CCCNC4)c(F)cc3F)n2nc1C1CC1 [Compound 106, (R)-6-(6-cyclopropyl-7-methoxyimidazo[1,2-b]pyridazin-3-yl)-3,5-difluoro-N-(piperidin-3-yl)pyridin-2-amine] — lower, < 0.5 nM
